Molecules are shown by their SMILES. Entries after “also recorded” stand apart in the source; their conditions may differ.

One test relates to RAW 264.7 cells. Briefly: Anti-inflammatory activity: nitrite production (Griess method) in LPS-stimulated RAW 264.7 cells. Format: cell-based. Conditions: 1.25, 2.5, 5 and 10 μM; 1 h pre-treatment, 0.4 μg/ml LPS 24 h. As to the method: A monolayer culture of RAW 264.7 cells growing in 96-well plates is used. The cells are treated for 1 h with the compounds evaluated. Subsequently, the inflammatory activity is stimulated with 0.4 µg/ml of LPS for 24 h. Once this time has elapsed, the production of nitrites is evaluated by means of the Griess method. Briefly, 50 µl of supernatant are transferred to 96-well plates and 50 µl of Griess reagent are added. The mixture is incubated for 15 minutes at room temperature and the absorbance at 520 nm is measured in a microplate reader.
As for `CCCCCCCCCCCC(=O)NNC(=O)c1c(O)c2ccccc2n(CC)c1=O` [Compound 6, N′-Dodecanoyl-1-ethyl-4-hydroxy-2-oxo-1,2-dihydroquinoline-3-carbohydrazide], the “decrease in nitrite release” value is recorded as “dose-dependent effect on the decrease in nitrite release; also recorded: decrease in inflammatory activity”.

A further test relates to GSK-3β. The test is described as follows: Kinetic study varying GS-2 peptide substrate concentration (double-reciprocal plot). Format: biochemical, human. Conditions: GS-2 15.5 to 100 μM, ATP 1 μM, inhibitor 5 to 10 μM. As for the experimental part:
The GS-2 concentrations were varied from 15.5 to 100 µM, whereas the ATP concentration was kept constant at 1 µM. The concentrations of inhibitor (compound 6) used are shown in the plot.
On the other hand, we also studied the dependence of GSK-3β activity in the presence of these inhibitors as a function of the concentration of the substrate, the GS-2 peptide, used in the assays.
Consider `CCCCCCCCCCCC(=O)NNC(=O)c1c(O)c2ccccc2n(CC)c1=O` [Compound 6, N′-Dodecanoyl-1-ethyl-4-hydroxy-2-oxo-1,2-dihydroquinoline-3-carbohydrazide], for which the “mode of inhibition versus substrate GS-2” value is recorded as “substrate-non-competitive inhibitor”.

In another test the test system is GSK-3β. Briefly: Study of the inhibition of GSK-3β as a function of enzyme-inhibitor pre-incubation time. Format: biochemical, human. Conditions: different enzyme incubation times, two inhibitor concentrations. As to the method:
In order to determine the binding mode of these compounds, different kinetic studies were performed, varying the reaction times and the ATP concentration and the substrate concentration.
For the molecule `CCCCCCCCCCCC(=O)NNC(=O)c1c(O)c2ccccc2n(CC)c1=O` [Compound 6, N′-Dodecanoyl-1-ethyl-4-hydroxy-2-oxo-1,2-dihydroquinoline-3-carbohydrazide], the “reversibility of enzyme inhibition” value was “reversible inhibitor”.

The target of the next test is GSK-3β (Homo sapiens, UniProt P49841). Briefly: Kinetic study varying ATP concentration (ADP-Glo Kinase Assay, double-reciprocal plot). Format: biochemical. Conditions: ATP 1 to 50 μM, GS-2 12.5 μM, inhibitor 5 to 10 μM. As for the experimental part: The ATP concentrations were varied from 1 to 50 µM, whereas the concentration of the GS-2 peptide was kept constant at 12.5 µM. The concentrations of inhibitor (compound 6) used are shown in the plot.
The kinetic studies conducted by varying the ATP concentration from 1 to 50 µM, and the concentration of inhibitor 6 from 5 to 10 µM, were performed using the ADP-Glo™ Kinase Assay.
With `CCCCCCCCCCCC(=O)NNC(=O)c1c(O)c2ccccc2n(CC)c1=O` [Compound 6, N′-Dodecanoyl-1-ethyl-4-hydroxy-2-oxo-1,2-dihydroquinoline-3-carbohydrazide], the “mode of inhibition versus ATP” value is recorded as “non-ATP-competitive inhibitor”.

The target of a further test is recombinant human GSK3 enzyme (GSK-3β) (Homo sapiens, UniProt P49841). Briefly: Measurement of the inhibition of GSK-3β (Kinase-Glo luminometric assay). Conditions: 25 μM substrate, 1 μM ATP, 30 min at 30 °C. Format: biochemical.
Experimental: The enzyme inhibition assays were performed using the luminometric methodology of Kinase-Glo®. […] The luminescent kinase kit (catalogue no. V6711) was obtained from Promega. The ATP and the other reagents were purchased from Sigma-Aldrich (St. Louis, Mo.).
The assays were performed in buffer using 96-well plates. 10 µl of the compound to be assayed (dissolved in DMSO at a concentration of 1 mM, and, in turn, dissolved in buffer to the concentration necessary for the experiment) and 10 µl (20 ng) of the enzyme are added to each well, followed by 20 µl of buffer containing 25 µM of the substrate and 1 µM of ATP. […] Following a half-hour incubation at 30° C., the enzymatic reaction is stopped with 40 µl of the Kinase-Glo® reagent. The luminescence is measured after ten minutes, using a POLARstar Optima multimode reader. The activity is proportional to the difference between the total ATP and the ATP consumed. The inhibitory activities were calculated as a function of the maximum activity, measured in the absence of inhibitor.
In the case of `CCCCCCCC(=O)NNC(=O)c1c(O)c2ccccc2n(C)c1=O` [Compound 3, 4-Hydroxy-1-methyl-N′-octanoyl-2-oxo-1,2-dihydroquinoline-3-carbohydrazide], the IC50 (usually the concentration needed to halve the response being measured) was found to be 8.67 ± 0.4 µM.
In the case of `CCCCCCCCCCCC(=O)NNC(=O)c1c(O)c2ccccc2n(C)c1=O` [Compound 4, N′-Dodecanoyl-4-hydroxy-1-methyl-2-oxo-1.2-dihydroquinoline-3-carbohydrazide], the IC50 amounted to 7.35 ± 0.23 µM.
The same measure, in the same setting: to `CCCCCCCCCCCC(=O)NNC(=O)c1c(O)c2ccccc2n(CC)c1=O` [Compound 6, N′-Dodecanoyl-1-ethyl-4-hydroxy-2-oxo-1,2-dihydroquinoline-3-carbohydrazide] belongs 2.85 ± 0.36 µM; to `CCCCCCCCCCCC(=O)NNC(=O)c1c(O)c2ccccc2n(CC2CC2)c1=O` [Compound 45, 1-(cyclopropylmethyl)-N′-dodecanoyl-4-hydroxy-2-oxo-1,2-dihydroquinoline-3-carbohydrazide], 5.25 ± 0.58 µM; to `CCCCCCCCCCCC(=O)NNC(=O)c1c(O)c2ccccc2n(Cc2ccccc2)c1=O` [Compound 46, 1-Benzyl-N′-dodecanoyl-4-hydroxy-2-oxo-1,2-dihydroquinoline-3-carbohydrazide], 5.51 ± 0.27 µM.
The same measure, in the same setting: to `CCCCCCCC(=O)NNC(=O)c1c(O)c2cc(Br)ccc2n(C)c1=O` [Compound 49, 6-Bromo-4-hydroxy-1-methyl-N′-octanoyl-2-oxo-1,2-dihydroquinoline-3-carbohydrazide] belongs 6.28 ± 0.33 µM; to `CCCCCCCCCCCC(=O)NNC(=O)c1c(O)c2cc(Br)ccc2n(C)c1=O` [Compound 50, 6-Bromo-N′-dodecanoyl-4-hydroxy-1-methyl-2-oxo-1,2-dihydroquinoline-3-carbohydrazide], 4.28 ± 0.5 µM; to `CCCCCCCC(=O)NNC(=O)c1c(O)c2cc(Br)ccc2n(CC)c1=O` [Compound 51, 6-Bromo-1-ethyl-4-hydroxy-N′-octanoyl-2-oxo-1,2-dihydroquinoline-3-carbohydrazide], 7.34 ± 0.2 µM.
On the same count and under the same terms, then `CCCCCCCCCCCC(=O)NNC(=O)c1c(O)c2cc(Br)ccc2n(CC)c1=O` [Compound 52, 6-Bromo-N′-dodecanoyl-1-ethyl-4-hydroxy-2-oxo-1,2-dihydroquinoline-3-carbohydrazide], with 2.01 ± 0.18 µM; and `CCCCCCCC(=O)NNC(=O)c1c(O)c2cc(Cl)ccc2n(C)c1=O` [Compound 53, 6-Chloro-4-hydroxy-1-methyl-N′-octanoyl-2-oxo-1,2-dihydroquinoline-3-carbohydrazide], with 8.48 ± 0.3 µM; and `CCCCCCCCCCCC(=O)NNC(=O)c1c(O)c2cc(Cl)ccc2n(C)c1=O` [Compound 54, 6-Chloro-N′-dodecanoyl-4-hydroxy-1-methyl-2-oxo-1,2-dihydroquinoline-3-carbohydrazide], with 5.95 ± 0.49 µM.
With `CCCCCCCC(=O)NNC(=O)c1c(O)c2cc(Cl)ccc2n(CC)c1=O` [Compound 55, 6-Chloro-1-ethyl-4-hydroxy-N′-octanoyl-2-oxo-1,2-dihydroquinoline-3-carbohydrazide], the concentration for half-maximal inhibition (IC50) is 9.42 ± 0.23 µM.
Same read-out and setting: then `CCCCCCCCCCCC(=O)NNC(=O)c1c(O)c2cc(Cl)ccc2n(CC)c1=O` [Compound 56, 6-Chloro-N′-dodecanoyl-1-ethyl-4-hydroxy-2-oxo-1,2-dihydroquinoline-3-carbohydrazide], with 3.18 ± 0.28 µM.
Turning to `CCCCCCCC(=O)NNC(=O)c1c(O)c2ccc(Cl)cc2n(C)c1=O` [Compound 57, 7-Chloro-4-hydroxy-1-methyl-N′-octanoyl-2-oxo-1,2-dihydroquinoline-3-carbohydrazide], the half-inhibitory concentration (IC50) is 6.66 ± 0.29 µM.
Turning to `CCCCCCCCCCCC(=O)NNC(=O)c1c(O)c2ccc(Cl)cc2n(C)c1=O` [Compound 58, 7-Chloro-N′-dodecanoyl-4-hydroxy-1-methyl-2-oxo-1,2-dihydroquinoline-3-carbohydrazide], the IC50 was 4.03 ± 0.19 µM.
Still for that read-out and setting: to `CCCCCCCC(=O)NNC(=O)c1c(O)c2ccc(Cl)cc2n(CC)c1=O` [Compound 59, 7-Chloro-1-ethyl-4-hydroxy-N′-octanoyl-2-oxo-1,2-dihydroquinoline-3-carbohydrazide] belongs 4.83 ± 0.23 µM; to `CCCCCCCCCCCC(=O)NNC(=O)c1c(O)c2ccc(Cl)cc2n(CC)c1=O` [Compound 60, 7-Chloro-N′-dodecanoyl-1-ethyl-4-hydroxy-2-oxo-1,2-dihydroquinoline-3-carbohydrazide], 2.48 ± 0.26 µM.
Still for that read-out and setting: then `CCCCCCCC(=O)NNC(=O)c1c(O)c2ccc(Cl)cc2n(Cc2ccccc2)c1=O` [Compound 61, 1-Benzyl-7-chloro-4-hydroxy-N′-octanoyl-2-oxo-1,2-di hydroquinoline-3-carbohydrazide], with 5.96 ± 0.17 µM.
The same measure, in the same setting: then `CCCCCCCCCCCC(=O)NNC(=O)c1c(O)c2ccc(Cl)cc2n(Cc2ccccc2)c1=O` [Compound 62, 1-Benzyl-7-chloro-N′-dodecanoyl-4-hydroxy-2-oxo-1,2-dihydroquinoline-3-carbohydrazide], with 5.99 ± 0.22 µM; and `CCCCCCCCCCCC(=O)N(Cc1ccccc1)NC(=O)c1c(O)c2ccccc2n(Cc2ccccc2)c1=O` [Compound 63, N′-1-dibenzyl-N′-dodecanoyl-4-hydroxy-2-oxo-1,2-dihydroquinoline-3-carbohydrazide], with 6.84 ± 0.51 µM.

Source of the values: patent publication US9757369B2, “Heterocyclic GSK-3 allosteric modulators” (Consejo Superior de Investigaciones Cientificas (CSIC), priority 2011, dated 2017).
